Experimental data taken from ChEMBL document CHEMBL1201861, “Genomics of Drug Sensitity in Cancer screening data, Wellcome Trust Sanger Institute”.

How the values were obtained:
Test in all cases: cells
DMS-114 = assay type: functional, cell-based, Homo sapiens; details: Homo sapiens, DMS-114
KE-37 = assay type: functional, cell-based, Homo sapiens; details: Homo sapiens, KE-37;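 further: growth inhibition of KE-37 cells, read out with a cell viability assay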
Description: SANGER: Inhibition of human KE-37 cell growth in a cell viability assay.

EW-16 = assay type: functional, cell-based, Homo sapiens; details: Homo sapiens, EW-16;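 further: growth inhibition of human EW-16 cells, read out as cell viability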
Description: SANGER: Inhibition of human EW-16 cell growth in a cell viability assay.

KGN = assay type: functional, cell-based, Homo sapiens; details: Homo sapiens, KGN;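 further: growth inhibition of KGN cells, read out with a cell viability assay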
Description: SANGER: Inhibition of human KGN cell growth in a cell viability assay.

NCI-H1963 = assay type: functional, cell-based, Homo sapiens; details: Homo sapiens, NCI-H1963;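 further: cell growth inhibition of the human line, determined with a cell viability assay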
Description: SANGER: Inhibition of human NCI-H1963 cell growth in a cell viability assay.

KY821 = assay type: functional, cell-based, Homo sapiens; details: Homo sapiens, KY821;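 further: growth inhibition of human KY821 cells, read out by a cell viability assay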
Description: SANGER: Inhibition of human KY821 cell growth in a cell viability assay.

DB = assay type: functional, cell-based, Homo sapiens; details: Homo sapiens, DB
Description: SANGER: Inhibition of human DB cell growth in a cell viability assay.

LB831-BLC = assay type: functional, cell-based, Homo sapiens; details: Homo sapiens, LB831-BLC;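 further: growth inhibition of LB831-BLC cells, read out with a cell viability assay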
Description: SANGER: Inhibition of human LB831-BLC cell growth in a cell viability assay.

BB65-RCC = assay type: functional, cell-based, Homo sapiens; details: Homo sapiens, BB65-RCC;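 further: growth inhibition of the cell line, measured with a cell viability assay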
Description: SANGER: Inhibition of human BB65-RCC cell growth in a cell viability assay.

HEL = assay type: functional, cell-based, Homo sapiens; details: Homo sapiens, HEL;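 further: growth inhibition of HEL cells, read out with a cell viability assay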
Description: SANGER: Inhibition of human HEL cell growth in a cell viability assay.

P30-OHK = assay type: functional, cell-based, Homo sapiens; details: Homo sapiens, P30-OHK;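 further: growth inhibition of the P30-OHK cell line, read out with a cell viability assay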
Description: SANGER: Inhibition of human P30-OHK cell growth in a cell viability assay.

MEG-01 = assay type: functional, cell-based, Homo sapiens; details: Homo sapiens, MEG-01;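 further: growth inhibition of MEG-01 cells, read out by a cell viability assay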
Description: SANGER: Inhibition of human MEG-01 cell growth in a cell viability assay.

JAR = assay type: functional, cell-based, Homo sapiens; details: Homo sapiens, JAR;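 further: growth inhibition of human JAR cells determined with a cell viability assay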
Description: SANGER: Inhibition of human JAR cell growth in a cell viability assay.

COLO-829 = assay type: functional, cell-based, Homo sapiens; details: Homo sapiens, COLO-829
Description: SANGER: Inhibition of human COLO-829 cell growth in a cell viability assay.

KG-1 = assay type: functional, cell-based, Homo sapiens; details: Homo sapiens, KG-1;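 further: growth inhibition of KG-1 cells, read out by a cell viability assay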
Description: SANGER: Inhibition of human KG-1 cell growth in a cell viability assay.

LU-139 = assay type: functional, cell-based, Homo sapiens; details: Homo sapiens, LU-139
Description: SANGER: Inhibition of human LU-139 cell growth in a cell viability assay.

LAN-6 = assay type: functional, cell-based, Homo sapiens; details: Homo sapiens, LAN-6;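 further: growth inhibition of LAN-6 cells, determined with a cell viability assay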
Description: SANGER: Inhibition of human LAN-6 cell growth in a cell viability assay.

RCC10RGB = assay type: functional, cell-based, Homo sapiens; details: Homo sapiens, RCC10RGB;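 further: growth inhibition of human RCC10RGB cells, read out by a cell viability assay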
Description: SANGER: Inhibition of human RCC10RGB cell growth in a cell viability assay.

LOX IMVI = assay type: functional, cell-based, Homo sapiens; details: Homo sapiens, LOX IMVI
Description: SANGER: Inhibition of human LOXIMVI cell growth in a cell viability assay.

LC-2-ad = assay type: functional, cell-based, Homo sapiens; details: Homo sapiens, LC-2-ad;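 further: growth inhibition of human LC-2-ad cells, read out with a cell viability assay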
Description: SANGER: Inhibition of human LC-2-ad cell growth in a cell viability assay.

LU-134-A = assay type: functional, cell-based, Homo sapiens; details: Homo sapiens, LU-134-A
Description: SANGER: Inhibition of human LU-134-A cell growth in a cell viability assay.

DOHH-2 = assay type: functional, cell-based, Homo sapiens; details: Homo sapiens, DOHH-2;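 further: growth inhibition of human DOHH-2 cells, read out with a cell viability assay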
Description: SANGER: Inhibition of human DOHH-2 cell growth in a cell viability assay.

NTERA-2-cl-D1 = assay type: functional, cell-based, Homo sapiens; details: Homo sapiens, NTERA-2-cl-D1;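 further: inhibition of cell growth, measured with a cell viability assay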
Description: SANGER: Inhibition of human NTERA-S-cl-D1 cell growth in a cell viability assay.

NOS-1 = assay type: functional, cell-based, Homo sapiens; details: Homo sapiens, NOS-1;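 further: growth inhibition of the human NOS-1 cell line, read out with a cell viability assay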
Description: SANGER: Inhibition of human NOS-1 cell growth in a cell viability assay.

ES7 = assay type: functional, cell-based, Homo sapiens; details: Homo sapiens, ES7;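 further: growth inhibition of cultured human ES7 cells, read out as cell viability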
Description: SANGER: Inhibition of human ES7 cell growth in a cell viability assay.

TE-10 = assay type: functional, cell-based, Homo sapiens; details: Homo sapiens, TE-10;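 further: growth inhibition of TE-10 cells, measured by a cell viability assay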
Description: SANGER: Inhibition of human TE-10 cell growth in a cell viability assay.

ES3 = assay type: functional, cell-based, Homo sapiens; details: Homo sapiens, ES3;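 further: growth inhibition of ES3 cells, read out with a cell viability assay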
Description: SANGER: Inhibition of human ES3 cell growth in a cell viability assay.

K562 = assay type: functional, cell-based, Homo sapiens; details: Homo sapiens, K562
Description: SANGER: Inhibition of human K-562 cell growth in a cell viability assay.

TE-8 = assay type: functional, cell-based, Homo sapiens; details: Homo sapiens, TE-8;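 further: growth inhibition of TE-8 cells, measured with a cell viability readout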
Description: SANGER: Inhibition of human TE-8 cell growth in a cell viability assay.

NB69 = assay type: functional, cell-based, Homo sapiens; details: Homo sapiens, NB69;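 further: growth inhibition of NB69 cells, determined by a cell viability assay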
Description: SANGER: Inhibition of human NB69 cell growth in a cell viability assay.

Mo = assay type: functional, cell-based, Homo sapiens; details: Homo sapiens, Mo
Description: SANGER: Inhibition of human Mo-T cell growth in a cell viability assay.

SK-MEL-2 = assay type: functional, cell-based, Homo sapiens; details: Homo sapiens, SK-MEL-2;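 further: growth inhibition of human SK-MEL-2 cells measured with a cell viability assay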
Description: SANGER: Inhibition of human SK-MEL-2 cell growth in a cell viability assay.

MZ2-MEL = assay type: functional, cell-based, Homo sapiens; details: Homo sapiens, MZ2-MEL;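 further: growth inhibition of MZ2-MEL cells read out with a cell viability assay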
Description: SANGER: Inhibition of human MZ2-MEL cell growth in a cell viability assay.

KM12 = assay type: functional, cell-based, Homo sapiens; details: Homo sapiens, KM12;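 further: KM12 cell growth inhibition, read out with a cell viability assay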
Description: SANGER: Inhibition of human KM12 cell growth in a cell viability assay.

ES4 = assay type: functional, cell-based, Homo sapiens; details: Homo sapiens, ES4;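 further: growth inhibition of human ES4 cells, read out by a cell viability assay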
Description: SANGER: Inhibition of human ES4 cell growth in a cell viability assay.

K5 = assay type: functional, cell-based, Homo sapiens; details: Homo sapiens, K5
Description: SANGER: Inhibition of human K5 cell growth in a cell viability assay.

LAMA-84 = assay type: functional, cell-based, Homo sapiens; details: Homo sapiens, LAMA-84;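 further: growth inhibition of LAMA-84 cells, read out with a cell viability assay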
Description: SANGER: Inhibition of human LAMA-84 cell growth in a cell viability assay.

SHP77 = assay type: functional, cell-based, Homo sapiens, SHP-77; details: Homo sapiens, SHP77;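 further: growth inhibition of human SHP-77 cells measured by a cell viability assay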
Description: SANGER: Inhibition of human SHP-77 cell growth in a cell viability assay.

HCC2218 = assay type: functional, cell-based, Homo sapiens; details: Homo sapiens, HCC2218;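 further: cell viability assay read-out, with IC50 given as the concentration that inhibits growth of the cell line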
Description: SANGER: Inhibition of human HCC2218 cell growth in a cell viability assay.

DEL = assay type: functional, cell-based, Homo sapiens; details: Homo sapiens, DEL;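 further: growth inhibition of the human DEL cell line, read out with a cell viability assay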
Description: SANGER: Inhibition of human DEL cell growth in a cell viability assay.

RS4-11 = assay type: functional, cell-based, Homo sapiens; details: Homo sapiens, RS4-11;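 further: growth inhibition of RS4-11 cells, read out by a cell viability assay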
Description: SANGER: Inhibition of human RS4-11 cell growth in a cell viability assay.

C8166 = assay type: functional, cell-based, Homo sapiens; details: Homo sapiens, C8166;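 further: growth inhibition of human C8166 cells measured by a cell viability assay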
Description: SANGER: Inhibition of human C8166 cell growth in a cell viability assay.

VA-ES-BJ = assay type: functional, cell-based, Homo sapiens; details: Homo sapiens, VA-ES-BJ;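 further: growth inhibition of the VA-ES-BJ cell line, read out by a cell viability assay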
Description: SANGER: Inhibition of human VA-ES-BJ cell growth in a cell viability assay.

HH = assay type: functional, cell-based, Homo sapiens; details: Homo sapiens, HH
Description: SANGER: Inhibition of human HH cell growth in a cell viability assay.

IST-MES1 = assay type: functional, cell-based, Homo sapiens; details: Homo sapiens, IST-MES1;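 further: growth inhibition of IST-MES1 cells, measured with a cell viability assay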
Description: SANGER: Inhibition of human IST-MES1 cell growth in a cell viability assay.

MSTO-211H = assay type: functional, cell-based, Homo sapiens; details: Homo sapiens, MSTO-211H
Description: SANGER: Inhibition of human MSTO-211H cell growth in a cell viability assay.

CGTH-W-1 = assay type: functional, cell-based, Homo sapiens; details: Homo sapiens, CGTH-W-1;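 further: growth inhibition of human CGTH-W-1 cells measured by cell viability assay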
Description: SANGER: Inhibition of human CGTH-W-1 cell growth in a cell viability assay.

BB49-HNC = assay type: functional, cell-based, Homo sapiens; details: Homo sapiens, BB49-HNC;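 further: cell viability assay read-out, reported as inhibition of BB49-HNC cell growth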
Description: SANGER: Inhibition of human BB49-HNC cell growth in a cell viability assay.

TGBC24TKB = assay type: functional, cell-based; details: Homo sapiens;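 further: growth inhibition of human TGBC24TKB cells, read out with a cell viability assay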
Description: SANGER: Inhibition of human TGBC24TKB cell growth in a cell viability assay.

KYSE-270 = assay type: functional, cell-based; details: Homo sapiens;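 further: cell growth inhibition measured with a viability assay in the human KYSE-270 line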
Description: SANGER: Inhibition of human KYSE-270 cell growth in a cell viability assay.

Structure (SMILES): Nc1ccccc1NC(=O)c1ccc(CNC(=O)OCc2cccnc2)cc1 [ENTINOSTAT]
- IC50 (DMS-114): > 5000 nM
- IC50 (KE-37): 643 nM
- IC50 (EW-16): 1930 nM
- IC50 (KGN): 2770 nM
- IC50 (NCI-H1963): 116 nM
- IC50 (KY821): > 5000 nM
- IC50 (DB): 1700 nM
- IC50 (LB831-BLC): 1840 nM
- IC50 (BB65-RCC): 3980 nM
- IC50 (HEL): 313 nM
- IC50 (P30-OHK): > 5000 nM
- IC50 (MEG-01): 1220 nM
- IC50 (JAR): 878 nM
- IC50 (COLO-829): 1540 nM
- IC50 (KG-1): 1620 nM
- IC50 (LU-139): 335 nM
- IC50 (LAN-6): 2020 nM
- IC50 (RCC10RGB): > 5000 nM
- IC50 (LOX IMVI): 1930 nM
- IC50 (LC-2-ad): 537 nM
- IC50 (LU-134-A): 571 nM
- IC50 (DOHH-2): > 5000 nM
- IC50 (NTERA-2-cl-D1): 201 nM
- IC50 (NOS-1): 196 nM
- IC50 (ES7): 1800 nM
- IC50 (TE-10): > 5000 nM
- IC50 (ES3): > 5000 nM
- IC50 (K562): 1390 nM
- IC50 (TE-8): 369 nM
- IC50 (NB69): 598 nM
- IC50 (Mo): > 5000 nM
- IC50 (SK-MEL-2): > 5000 nM
- IC50 (MZ2-MEL): > 5000 nM
- IC50 (KM12): 1650 nM
- IC50 (ES4): 859 nM
- IC50 (K5): 470 nM
- IC50 (LAMA-84): 776 nM
- IC50 (SHP77): 4010 nM
- IC50 (HCC2218): 1170 nM
- IC50 (DEL): 375 nM
- IC50 (RS4-11): > 5000 nM
- IC50 (C8166): > 5000 nM
- IC50 (VA-ES-BJ): > 5000 nM
- IC50 (HH): 990 nM
- IC50 (IST-MES1): 3180 nM
- IC50 (MSTO-211H): 1480 nM
- IC50 (CGTH-W-1): 2420 nM
- IC50 (BB49-HNC): 2920 nM

Structure (SMILES): NC(=O)Nc1cc(-c2cccc(F)c2)sc1C(=O)N[C@H]1CCCNC1 [AZD-7762]
- IC50 (DMS-114): > 2000 nM
- IC50 (KE-37): 31.4 nM
- IC50 (EW-16): 538 nM
- IC50 (KGN): 1230 nM
- IC50 (KY821): 214 nM
- IC50 (DB): 1700 nM
- IC50 (LB831-BLC): > 2000 nM
- IC50 (BB65-RCC): 271 nM
- IC50 (HEL): 225 nM
- IC50 (P30-OHK): 132 nM
- IC50 (MEG-01): 346 nM
- IC50 (JAR): 232 nM
- IC50 (COLO-829): 298 nM
- IC50 (KG-1): 845 nM
- IC50 (LU-139): > 2000 nM
- IC50 (LAN-6): 1080 nM
- IC50 (RCC10RGB): > 2000 nM
- IC50 (LOX IMVI): 429 nM
- IC50 (LC-2-ad): 565 nM
- IC50 (LU-134-A): 657 nM
- IC50 (DOHH-2): 131 nM
- IC50 (NTERA-2-cl-D1): > 2000 nM
- IC50 (NOS-1): 150 nM
- IC50 (ES7): 160 nM
- IC50 (TE-10): 910 nM
- IC50 (ES3): 102 nM
- IC50 (K562): > 2000 nM
- IC50 (TE-8): 1120 nM
- IC50 (NB69): 705 nM
- IC50 (Mo): > 2000 nM
- IC50 (SK-MEL-2): 100 nM
- IC50 (MZ2-MEL): > 2000 nM
- IC50 (KM12): 51.6 nM
- IC50 (TGBC24TKB): 165 nM
- IC50 (ES4): 32.5 nM
- IC50 (K5): 941 nM
- IC50 (LAMA-84): 165 nM
- IC50 (KYSE-270): 226 nM
- IC50 (SHP77): > 2000 nM
- IC50 (HCC2218): > 2000 nM
- IC50 (DEL): 45.9 nM
- IC50 (RS4-11): 203 nM
- IC50 (C8166): 1910 nM
- IC50 (VA-ES-BJ): 226 nM
- IC50 (HH): 708 nM
- IC50 (IST-MES1): > 2000 nM
- IC50 (MSTO-211H): 299 nM
- IC50 (CGTH-W-1): 14.2 nM
- IC50 (BB49-HNC): 1400 nM

Structure (SMILES): CC1=C(/C=C/C(C)=C/C=C/C(C)=C/C(=O)O)C(C)(C)CCC1 [TRETINOIN]
- IC50 (DMS-114): > 10000 nM
- IC50 (KE-37): > 10000 nM
- IC50 (EW-16): > 10000 nM
- IC50 (KGN): > 10000 nM
- IC50 (KY821): 5700 nM
- IC50 (DB): 4770 nM
- IC50 (LB831-BLC): > 10000 nM
- IC50 (BB65-RCC): > 10000 nM
- IC50 (HEL): > 10000 nM
- IC50 (P30-OHK): > 10000 nM
- IC50 (MEG-01): 9610 nM
- IC50 (JAR): > 10000 nM
- IC50 (COLO-829): > 10000 nM
- IC50 (KG-1): > 10000 nM
- IC50 (LU-139): > 10000 nM
- IC50 (LAN-6): > 10000 nM
- IC50 (RCC10RGB): > 10000 nM
- IC50 (LOX IMVI): > 10000 nM
- IC50 (LC-2-ad): > 10000 nM
- IC50 (LU-134-A): > 10000 nM
- IC50 (DOHH-2): > 10000 nM
- IC50 (NTERA-2-cl-D1): > 10000 nM
- IC50 (NOS-1): > 10000 nM
- IC50 (ES7): > 10000 nM
- IC50 (TE-10): > 10000 nM
- IC50 (ES3): > 10000 nM
- IC50 (K562): > 10000 nM
- IC50 (TE-8): > 10000 nM
- IC50 (NB69): > 10000 nM
- IC50 (Mo): > 10000 nM
- IC50 (SK-MEL-2): > 10000 nM
- IC50 (MZ2-MEL): > 10000 nM
- IC50 (KM12): > 10000 nM
- IC50 (TGBC24TKB): > 10000 nM
- IC50 (ES4): > 10000 nM
- IC50 (K5): > 10000 nM
- IC50 (LAMA-84): 996 nM
- IC50 (KYSE-270): > 10000 nM
- IC50 (SHP77): > 10000 nM
- IC50 (HCC2218): > 10000 nM
- IC50 (DEL): > 10000 nM
- IC50 (RS4-11): 4450 nM
- IC50 (C8166): > 10000 nM
- IC50 (VA-ES-BJ): > 10000 nM
- IC50 (HH): 196 nM
- IC50 (IST-MES1): > 10000 nM
- IC50 (MSTO-211H): > 10000 nM
- IC50 (CGTH-W-1): > 10000 nM
- IC50 (BB49-HNC): > 10000 nM
